Results on 1 molecule are retold here after paper PMC12095788 (Communications Chemistry, 2025).

For this test, the target named is T1, Nurr1 LBD homodimer (Homo sapiens, UniProt P43354).
T1 construct: a plasmid construct encoding Nurr1 (aa 364-598) in a pMal vector system; sGFP-Nurr1 LBD protein and sGFP-RXRα LBD[26] were titrated against a fixed concentration of Tb-SA conjugated Nurr1 LBD protein; MBP (cleaved yes); made in house; host or cells: E.coli BL21-R3-pRARE2 (biotinylated Nurr1 LBD)
The experiment in a line: HTRF Nurr1 homodimer formation assay. Type of test: biochemical. (In general: TR-FRET usually uses a lanthanide donor and a delayed reading to cut background.)

T1 sequence (P43354 364-598 limits assumed): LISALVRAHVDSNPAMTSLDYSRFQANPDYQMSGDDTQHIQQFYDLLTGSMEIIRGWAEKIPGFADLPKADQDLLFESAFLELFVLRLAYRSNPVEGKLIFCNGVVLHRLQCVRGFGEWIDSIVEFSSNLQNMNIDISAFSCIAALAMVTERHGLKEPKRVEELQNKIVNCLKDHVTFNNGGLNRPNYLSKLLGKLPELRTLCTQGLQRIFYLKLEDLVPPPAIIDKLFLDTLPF

For the molecule `O=C(O)C1=C(C(=O)Nc2ccc(-c3ccccc3OCc3ccccc3)cc2F)CCC1` [compound 1, 2-{[2’-(Benzyloxy)-3-fluoro-[1,1’-biphenyl]-4-yl]carbamoyl}cyclopent-1-ene-1-carboxylic acid], the “effect on Nurr1 homodimerization” value is reported as “markedly disrupted”.
